Data reported in patent publication EP0336446A1, “Gene and gene product for the production of beta-lactam-compounds” (BIOCHEMIE GESELLSCHAFT M.B.H., priority 1988, dated 1989).
“And” between values parts separate entries of the source, which are not always exact repeats. Identical values can stand only once.

Key:
PAT [1] = biological target: T1, PAT (Penicillium chrysogenum, UniProt P15802); experiment: Microbiological agar diffusion test (Micrococcus luteus ATCC 9341/BC 85) of transacylation of Isopenicillin N with PaCoA by enzyme preparation AS-Präzipitat; format: biochemical, Penicillium chrysogenum P2/ATCC 48271
T1 sequence (P15802 103-357 limits assumed): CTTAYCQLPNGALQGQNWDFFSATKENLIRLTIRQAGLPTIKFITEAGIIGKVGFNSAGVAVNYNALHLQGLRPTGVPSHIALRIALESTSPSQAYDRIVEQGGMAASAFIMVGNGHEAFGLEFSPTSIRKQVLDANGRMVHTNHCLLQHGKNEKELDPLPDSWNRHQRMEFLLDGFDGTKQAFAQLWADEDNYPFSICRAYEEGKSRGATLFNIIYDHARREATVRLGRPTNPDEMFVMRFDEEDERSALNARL
T1 sequence (P15802 1-102 limits assumed): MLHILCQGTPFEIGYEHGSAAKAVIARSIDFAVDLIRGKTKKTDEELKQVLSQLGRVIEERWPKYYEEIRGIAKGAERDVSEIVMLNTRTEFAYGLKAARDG
Description: (§1) Die, wie in Beispiel 2 beschrieben, hergestellte Enzymrohpräzipitation wird im mikrobiologischen Agardiffusionstest hinsichtlich Transacylierung von 6-APA bzw. Isopenicillin N mit PaCoA und Spaltung von Kalium Penicillin V mit bzw. ohne Inhibitorzusatz folgendermaßen getestet: Testkeim: Micrococcus luteus ATCC 9341/BC 85, 0,5% Einsaat Testmedium: Antibiotic Medium 1 (DIFCO), 110 ml Testplatte: Nunc 243x243x18 mm Probe: 50 µl pro Näpfchen (6 mm Durchmesser) Inkubation: 37°, 15 Stunden Enzym: AS-Präzipitat (hergestellt wie in Beispiel 2 beschrieben): 1 ml zentrifugiert (20.000 Upm/10 min), Überstand verworfen, Pellet in 20 ml RP + Z resuspendiert. RP + Z: 0,1 M Phosphatpuffer pH 7,5 + 1 mM DTT + 10 mM MgCl₂
Sofort bzw. nach 7, 30 und 60 Minuten Inkubationszeit werden 20 µl Aliquots der Ansätze entnommen, 1:5 mit 50% Ethanol (Stoppen der Enzymreaktion) verdünnt und im Agardiffusionstest auf Penicillingehalt getestet.

[2] = test system: Micrococcus luteus ATCC 9341/BC 85; experiment: Agar diffusion test of penicillin standards (inhibition zone diameter); format: cell-based
PAT [3] = biological target: T1, PAT; experiment: Substrate specificity of purified PAT (fraction AL 278/2), specific enzyme activity by HPLC; format: biochemical, Penicillium chrysogenum P2/ATCC 48271
PAT [4] = biological target: T1, PAT; experiment: Penicillin V cleavage by AS-Präzipitat, residual penicillin by agar diffusion test; format: biochemical, Penicillium chrysogenum P2/ATCC 48271
Description: as §1

[5] = labelled substance = Acylakzeptor, Acyldonator PaCoA
[6] = labelled substance = Acylakzeptor, Acyldonator PeCoA
[7] = labelled substance = Acyldonator, Acylakzeptor H₂O, Produkt 6-APA

## CC1(C)S[C@@H]2[C@H](NC(=O)CCC[C@H](N)C(=O)O)C(=O)N2[C@H]1C(=O)O [Isopenicillin N Nr. 28, Isopenicillin N]
PAT [1]; a) ohne Inhibitor, 7′, listed as Nr. 28
  Transacylierung von Isopenicillin N (#28 u 36) mit PaCoA (HH ⌀ mm): 25.5 mm
PAT [1]; a) ohne Inhibitor, 30′, listed as Nr. 28
  Transacylierung von Isopenicillin N (#28 u 36) mit PaCoA (HH ⌀ mm): 26.0 mm
PAT [1]; a) ohne Inhibitor, 60′, listed as Nr. 28
  Transacylierung von Isopenicillin N (#28 u 36) mit PaCoA (HH ⌀ mm): 23.0 mm
PAT [1]; a) ohne Inhibitor, s (sofort), listed as Nr. 28
  Transacylierung von Isopenicillin N (#28 u 36) mit PaCoA (HH ⌀ mm): 22.5 mm
PAT [1]; b) 2 mM Jodacetamid, 7′, listed as Nr. 28
  Transacylierung von Isopenicillin N (#28 u 36) mit PaCoA (HH ⌀ mm): 20.8 mm
PAT [1]; b) 2 mM Jodacetamid, 30′, listed as Nr. 28
  Transacylierung von Isopenicillin N (#28 u 36) mit PaCoA (HH ⌀ mm): 18.3 mm
PAT [1]; b) 2 mM Jodacetamid, 60′, listed as Nr. 28
  Transacylierung von Isopenicillin N (#28 u 36) mit PaCoA (HH ⌀ mm): 14.7 mm
PAT [1]; b) 2 mM Jodacetamid, s (sofort), listed as Nr. 28
  Transacylierung von Isopenicillin N (#28 u 36) mit PaCoA (HH ⌀ mm): 21.1 mm
PAT [1]; c) 2 mM PMSF, 7′, listed as Nr. 28
  Transacylierung von Isopenicillin N (#28 u 36) mit PaCoA (HH ⌀ mm): 24.7 mm
PAT [1]; c) 2 mM PMSF, 30′, listed as Nr. 28
  Transacylierung von Isopenicillin N (#28 u 36) mit PaCoA (HH ⌀ mm): 25.7 mm
PAT [1]; c) 2 mM PMSF, 60′, listed as Nr. 28
  Transacylierung von Isopenicillin N (#28 u 36) mit PaCoA (HH ⌀ mm): 20.7 mm
PAT [1]; c) 2 mM PMSF, s (sofort), listed as Nr. 28
  Transacylierung von Isopenicillin N (#28 u 36) mit PaCoA (HH ⌀ mm): 22.7 mm
[2]; Micrococcus luteus, ATCC9341, 15 h, read-out: HH ⌀ mm, Isopenicillin N Std. 12.5 µg/ml
  zone of inhibition at 12.5 µg/mL: 12.4 mm
[2]; Micrococcus luteus, ATCC9341, 15 h, read-out: HH ⌀ mm, Isopenicillin N Std. 25 µg/ml
  zone of inhibition at 25 µg/mL: 16.5 mm
[2]; Micrococcus luteus, ATCC9341, 15 h, read-out: HH ⌀ mm, Isopenicillin N Std. 50 µg/ml
  zone of inhibition at 50 µg/mL: 20 mm

## CC1(C)S[C@@H]2[C@H](NC(=O)CCC[C@H](N)C(=O)O)C(=O)N2[C@H]1C(=O)O [Isopenicillin N Nr. 36, Isopenicillin N]
PAT [1]; a) ohne Inhibitor, 7′, listed as Nr. 36
  Transacylierung von Isopenicillin N (#28 u 36) mit PaCoA (HH ⌀ mm): 28.3 mm
PAT [1]; a) ohne Inhibitor, 30′, listed as Nr. 36
  Transacylierung von Isopenicillin N (#28 u 36) mit PaCoA (HH ⌀ mm): 30.8 mm
PAT [1]; a) ohne Inhibitor, 60′, listed as Nr. 36
  Transacylierung von Isopenicillin N (#28 u 36) mit PaCoA (HH ⌀ mm): 28.7 mm
PAT [1]; a) ohne Inhibitor, s (sofort), listed as Nr. 36
  Transacylierung von Isopenicillin N (#28 u 36) mit PaCoA (HH ⌀ mm): 27.0 mm
PAT [1]; b) 2 mM Jodacetamid, 7′, listed as Nr. 36
  Transacylierung von Isopenicillin N (#28 u 36) mit PaCoA (HH ⌀ mm): 25.0 mm
PAT [1]; b) 2 mM Jodacetamid, 30′, listed as Nr. 36
  Transacylierung von Isopenicillin N (#28 u 36) mit PaCoA (HH ⌀ mm): 23.6 mm
PAT [1]; b) 2 mM Jodacetamid, 60′, listed as Nr. 36
  Transacylierung von Isopenicillin N (#28 u 36) mit PaCoA (HH ⌀ mm): 22.1 mm
PAT [1]; b) 2 mM Jodacetamid, s (sofort), listed as Nr. 36
  Transacylierung von Isopenicillin N (#28 u 36) mit PaCoA (HH ⌀ mm): 25.2 mm
PAT [1]; c) 2 mM PMSF, 7′, listed as Nr. 36
  Transacylierung von Isopenicillin N (#28 u 36) mit PaCoA (HH ⌀ mm): 27.2 mm
PAT [1]; c) 2 mM PMSF, 30′, listed as Nr. 36
  Transacylierung von Isopenicillin N (#28 u 36) mit PaCoA (HH ⌀ mm): 27.7 mm
PAT [1]; c) 2 mM PMSF, 60′, listed as Nr. 36
  Transacylierung von Isopenicillin N (#28 u 36) mit PaCoA (HH ⌀ mm): 26.7 mm
PAT [1]; c) 2 mM PMSF, s (sofort), listed as Nr. 36
  Transacylierung von Isopenicillin N (#28 u 36) mit PaCoA (HH ⌀ mm): 26.3 mm
[2]; Isopenicillin N Std. 12.5 µg/ml
  HH ⌀ mm: 18.4 mm
[2]; Isopenicillin N Std. 25 µg/ml
  HH ⌀ mm: 22.1 mm
[2]; Isopenicillin N Std. 50 µg/ml
  HH ⌀ mm: 24.5 mm

## CC1(C)S[C@@H]2[C@H](NC(=O)CCC[C@H](N)C(=O)O)C(=O)N2[C@H]1C(=O)O [Isopenicillin N]
PAT [3]; [5]
  mittels HPLC bestimmte spezifische Enzymaktivität (mU/mg Protein) A1 278/2: 146 mU/mg Protein
PAT [3]; [6]
  mittels HPLC bestimmte spezifische Enzymaktivität (mU/mg Protein) A1 278/2: 80 mU/mg Protein
PAT [3]; [7]
  mittels HPLC bestimmte spezifische Enzymaktivität (mU/mg Protein) A1 278/2: 150 mU/mg Protein

## CC1(C)S[C@@H]2[C@H](NC(=O)COc3ccccc3)C(=O)N2[C@H]1C(=O)O [Kalium Penicillin V]
[2]; Penicillin V Std. 0.25 µg/ml
  HH ⌀ mm: 11.9 mm
[2]; Penicillin V Std. 0.5 µg/ml
  HH ⌀ mm: 18.4 mm
[2]; Penicillin V Std. 1.0 µg/ml
  HH ⌀ mm: 23.4 mm
[2]; Penicillin V Std. 1.5 µg/ml
  HH ⌀ mm: 24.7 mm
[2]; Penicillin V Std. 2.0 µg/ml
  HH ⌀ mm: 27.4 mm
PAT [4]; a) ohne Inhibitor, 7′
  Spaltung von Kalium Penicillin V (HH ⌀ mm): 21.8 mm
PAT [4]; a) ohne Inhibitor, 30′
  Spaltung von Kalium Penicillin V (HH ⌀ mm): 0 mm
PAT [4]; a) ohne Inhibitor, 60′
  Spaltung von Kalium Penicillin V (HH ⌀ mm): 0 mm
PAT [4]; a) ohne Inhibitor, s
  Spaltung von Kalium Penicillin V (HH ⌀ mm): 25.7 mm
PAT [4]; b) + 2 mM Jodacetamid, 7′
  Spaltung von Kalium Penicillin V (HH ⌀ mm): 23.1 mm
PAT [4]; b) + 2 mM Jodacetamid, 30′
  Spaltung von Kalium Penicillin V (HH ⌀ mm): 0 mm
PAT [4]; b) + 2 mM Jodacetamid, 60′
  Spaltung von Kalium Penicillin V (HH ⌀ mm): 0 mm
PAT [4]; b) + 2 mM Jodacetamid, s
  Spaltung von Kalium Penicillin V (HH ⌀ mm): 25.7 mm
PAT [4]; c) + 2 mM Ethylmaleinimid, 7′
  Spaltung von Kalium Penicillin V (HH ⌀ mm): 23.0 mm
PAT [4]; c) + 2 mM Ethylmaleinimid, 30′
  Spaltung von Kalium Penicillin V (HH ⌀ mm): 0 mm
PAT [4]; c) + 2 mM Ethylmaleinimid, 60′
  Spaltung von Kalium Penicillin V (HH ⌀ mm): 0 mm
PAT [4]; c) + 2 mM Ethylmaleinimid, s
  Spaltung von Kalium Penicillin V (HH ⌀ mm): 25.0 mm
PAT [4]; d) + 2 mM PMSF, 7′
  Spaltung von Kalium Penicillin V (HH ⌀ mm): 0 mm
PAT [4]; d) + 2 mM PMSF, 30′
  Spaltung von Kalium Penicillin V (HH ⌀ mm): 0 mm
PAT [4]; d) + 2 mM PMSF, 60′
  Spaltung von Kalium Penicillin V (HH ⌀ mm): 0 mm
PAT [4]; d) + 2 mM PMSF, s
  Spaltung von Kalium Penicillin V (HH ⌀ mm): 25.3 mm

## CC1(C)S[C@@H]2[C@H](NC(=O)Cc3ccccc3)C(=O)N2[C@H]1C(=O)O [Penicillin G]
PAT [3]; [5]
  mittels HPLC bestimmte spezifische Enzymaktivität (mU/mg Protein) A1 278/2: 25 mU/mg Protein
PAT [3]; [7]
  mittels HPLC bestimmte spezifische Enzymaktivität (mU/mg Protein) A1 278/2: 17 mU/mg Protein

## CC1(C)S[C@@H]2[C@H](NC(=O)COc3ccccc3)C(=O)N2[C@H]1C(=O)O [Penicillin V]
PAT [3]; [6]
  mittels HPLC bestimmte spezifische Enzymaktivität (mU/mg Protein) A1 278/2: 99 mU/mg Protein
PAT [3]; [7]
  mittels HPLC bestimmte spezifische Enzymaktivität (mU/mg Protein) A1 278/2: 75 mU/mg Protein
[2]; Micrococcus luteus, ATCC9341, 15 h, Penicillin V Std. 0.25 µg/ml, read-out: HH ⌀ mm
  zone of inhibition at 0.25 µg/mL: 9.7 mm
[2]; Micrococcus luteus, ATCC9341, 15 h, Penicillin V Std. 0.5 µg/ml, read-out: HH ⌀ mm
  zone of inhibition at 0.5 µg/mL: 17.6 mm
[2]; Micrococcus luteus, ATCC9341, 15 h, Penicillin V Std. 1.0 µg/ml, read-out: HH ⌀ mm
  zone of inhibition at 1 µg/mL: 21.7 mm
[2]; Micrococcus luteus, ATCC9341, 15 h, Penicillin V Std. 1.5 µg/ml, read-out: HH ⌀ mm
  zone of inhibition at 1.5 µg/mL: 24 mm
[2]; Micrococcus luteus, ATCC9341, 15 h, Penicillin V Std. 2.0 µg/ml, read-out: HH ⌀ mm
  zone of inhibition at 2 µg/mL: 25.3 mm
[2]; Penicillin V Std. 0.25 µg/ml
  HH ⌀ mm: 11.9 mm
[2]; Penicillin V Std. 0.5 µg/ml
  HH ⌀ mm: 17.8 mm and 18.4 mm
[2]; Penicillin V Std. 1.0 µg/ml
  HH ⌀ mm: 23.4 mm
[2]; Penicillin V Std. 1.5 µg/ml
  HH ⌀ mm: 24.7 mm
[2]; Penicillin V Std. 2.0 µg/ml
  HH ⌀ mm: 27.4 mm

## Penicillin
[2]; Micrococcus luteus ATCC 9341, relative to 6-APA
  antibakterielle Sensitivität gegenüber Penicillin als gegenüber 6-APA: mehr als drei Zehnerpotenzen
